The experiment concerns liver damage induced by carbon tetrachloride. As to the kind of experiment: Protective (Controlling) effect on liver damage induced by carbon tetrachloride. The format is in vivo, mice (dd strain). The conditions noted are these: 250 mg/kg p.o., CCl4 0.05 ml/kg after 6 h, 24 h; for p-GPT: CCl4 alone >2,100; for Liver Damage Index: average of 5 mice, 0 Normal, 2 Slightly recognized, 4 Clearly observable damage, 6 Heavy damage, CCl4 alone 5.0. An excerpt: Protective (Controlling) Effect on liver damage induced by carbon tetrachloride.
Carbon tetrachloride administration induces centrilobular necrosis of the liver associated with loss of diphosphopyridine nucleotide, hepatic glycogen, coenzyme A and increase in neutral fat. Release of several enzymes from the hepatocytes, and increases of enzyme activities in the plasma are recognized as the result of the damage of the liver.
A suitable means for evaluating the degree induced by carbon tetrachloride or the degree of protection afforded by drugs is to study the plasma glutamic-pyruvic transaminase (p-GPT) activity. […]
After 6 hours, carbon tetrachloride was administered orally 0.05 ml/kg.
Animals were killed 24 hours after carbon tetrachloride administration, and the liver was grossly observed.
The plasma was obtained by centrifugation. Activity of p-GPT were determined by the method of Reitman and Frankel and expressed in Karmen units.
Score for liver damage index was as follows:
1 Each figure indicated average of 5 mice.

As to `CC(C)OC(=O)C(C(=O)OC(C)C)=C1SC2OC(=O)OC2S1` (stereo not shown) [Compound 75], the p-GPT turned out to be 19.9 Karmen units and the “Liver Damage Index” value amounted to 0.2.
With `CCCOC(=O)C(C(=O)OCCC)=C1SC(OC(C)=O)C(OC(C)=O)S1` (stereo not shown) [Compound 59], the p-GPT is on record as 40.9 Karmen units and the “Liver Damage Index” value is 0.4.
With `CCCOC(=O)C(C(C)=O)=C1SC(OC(=O)C(C)(C)C)C(OC(=O)C(C)(C)C)S1` (stereo not shown) [Compound 63], the p-GPT stood at 402.6 Karmen units and the “Liver Damage Index” value is 1.8.
In the case of `CC(C)(C)OC(=O)C(C(=O)OC(C)(C)C)=C1SC2OC(=O)OC2S1` (stereo not shown) [Compound 79], the p-GPT was 66.0 Karmen units and the “Liver Damage Index” value was determined as 0.8.
`CCC(C)OC(=O)C(C(=O)OC(C)CC)=C1SC(OC(=O)CCC(=O)O)C(OC(=O)CCC(=O)O)S1` (stereo not shown) [Compound 71, di-sec-butyl 4,5-bis(2'-carboxyethylcarbonyloxy)-1,3-dithiolan-2-ylidenemalonate]: the “Liver Damage Index” value came to 2.2.
Consider `CCCCOC(=O)C(C(=O)OCCCC)=C1SC2OC(=O)OC2S1` (stereo not shown) [Compound 76], for which the p-GPT was 84.8 Karmen units and the “Liver Damage Index” value came out at 0.6.
For `C=CCOC(=O)C(C(C)=O)=C1SC2OC(=O)OC2S1` (stereo not shown) [Compound 98], the p-GPT worked out at 16.9 Karmen units and the “Liver Damage Index” value came out at 0.
On the same counts, the results for `CC(C)COC(=O)C(C(=O)OC(C)C)=C1SC2OC(=O)OC2S1` (stereo not shown) [Compound 86] are over 436.4 Karmen units and 0.6.
Turning to `O=C1OC2SC(=C(C(=O)OC3CCCCC3)C(=O)OC3CCCCC3)SC2O1` (stereo not shown) [Compound 82], the p-GPT came out at 159.7 Karmen units and the “Liver Damage Index” value amounted to 0.4.
In the same order, the values of `CC(=O)C(C(=O)OCC(C)C)=C1SC2OC(=O)OC2S1` (stereo not shown) [Compound 92] are 29.4 Karmen units and 0.8.
`CCCOC(=O)C(C#N)=C1SC(O)C(O)S1` (stereo not shown) [Compound 26]: the p-GPT was found to be 24 Karmen units and the “Liver Damage Index” value turned out to be 0.0.
As for `CC(C)OC(=O)C(C(=O)OC(C)C)=C1SC2OC(=S)OC2S1` (stereo not shown) [Compound 109], the p-GPT was 139.3 Karmen units and the “Liver Damage Index” value is 0.4.
Turning to `CCC(C)OC(=O)C(C(=O)OC(C)CC)=C1SC2OC(=S)OC2S1` (stereo not shown) [Compound 111], the p-GPT turned out to be 18.6 Karmen units and the “Liver Damage Index” value is recorded as 0.8.
As for `CCOC(=O)C(C(=O)CC)=C1SC(O)C(O)S1` (stereo not shown) [Compound 49], the p-GPT turned out to be 23 Karmen units and the “Liver Damage Index” value is 0.4.
For `CC(C)CCOC(=O)C(C(=O)OCCC(C)C)=C1SC2OC(=O)OC2S1` (stereo not shown) [Compound 81], the p-GPT was found to be 108.1 Karmen units and the “Liver Damage Index” value was 1.2.
As to `CCCCCCC(=O)C(C(=O)OCC)=C1SC2OC(=O)OC2S1` (stereo not shown) [Compound 105], the p-GPT was determined as 107.4 Karmen units and the “Liver Damage Index” value stood at 1.6.
In the same order, the values of `CCCCC(=O)C(C(=O)OCC)=C1SC2OC(=O)OC2S1` (stereo not shown) [Compound 103] are 14.7 Karmen units and 0.
As for `CCCCOC(=O)C(C#N)=C1SC(O)C(O)S1` (stereo not shown) [Compound 28], the p-GPT is 80 Karmen units and the “Liver Damage Index” value was determined as 0.4.
On the same counts, the results for `CCCCCCC(=O)C(C(=O)OCC)=C1SC(O)C(O)S1` (stereo not shown) [Compound 54] are 188 Karmen units and 2.6.
`COC(=O)C(C(C)=O)=C1SC2OC(=O)OC2S1` (stereo not shown) [Compound 87]: the p-GPT is recorded as 45.7 Karmen units and the “Liver Damage Index” value was 0.6.
In the case of `CCCOC(=O)C(C(=O)OCCC)=C1SC(OC(=O)C(C)(C)C)C(OC(=O)C(C)(C)C)S1` (stereo not shown) [Compound 62], the p-GPT worked out at 223.2 Karmen units and the “Liver Damage Index” value amounted to 1.2.
On the same counts, the results for `CCCCOC(=O)C(C(C)=O)=C1SC2OC(=O)OC2S1` (stereo not shown) [Compound 91] are 27.9 Karmen units and 0.8.
Consider `CCOC(=O)C(C(=O)OCC)=C1SC2OC(=S)OC2S1` (stereo not shown) [Compound 107], for which the p-GPT is on record as 42.6 Karmen units and the “Liver Damage Index” value is reported as 0.6.
In the same order, the values of `C=CCOC(=O)C(C(=O)OCC=C)=C1SC2OC(=O)OC2S1` (stereo not shown) [Compound 84] are 13.9 Karmen units and 0.
Regarding `CCCOC(=O)C(C(=O)OCCC)=C1SC(OC(=O)CCC(=O)O)C(OC(=O)CCC(=O)O)S1` (stereo not shown) [Compound 68], the “Liver Damage Index” value amounted to 2.0.
In the case of `COC(=O)C(C(=O)OC)=C1SC2OC(=O)OC2S1` (stereo not shown) [Compound 72], the p-GPT stood at 32.3 Karmen units and the “Liver Damage Index” value is given as 0.
As for `CCOC(=O)C(C(=O)C(C)C)=C1SC(O)C(O)S1` (stereo not shown) [Compound 51], the p-GPT is given as 172 Karmen units and the “Liver Damage Index” value is 1.6.
For the compound `CC(C)OC(=O)C(C(=O)OC(C)C)=C1SC(OC(=O)CCC(=O)O)C(OC(=O)CCC(=O)O)S1` (stereo not shown) [Compound 69], the “Liver Damage Index” value turned out to be 2.2.
As for `CCOC(=O)C(C#N)=C1SC(O)C(O)S1` (stereo not shown) [Compound 25], the “Liver Damage Index” value came out at 2.0.
With `CCCCCOC(=O)C(C(C)=O)=C1SC2OC(=O)OC2S1` (stereo not shown) [Compound 95], the p-GPT was found to be 28.2 Karmen units and the “Liver Damage Index” value was determined as 0.8.
On the same counts, the results for `CCCOC(=O)C(C(C)=O)=C1SC(OC(=O)OCC)C(OC(=O)OCC)S1` (stereo not shown) [Compound 67] are 127.7 Karmen units and 0.8.
In the same order, the values of `CCCCCOC(=O)C(C#N)=C1SC(O)C(O)S1` (stereo not shown) [Compound 30] are 116 Karmen units and 0.6.
With `C#CCOC(=O)C(C(=O)OCC#C)=C1SC2OC(=S)OC2S1` (stereo not shown) [Compound 113], the p-GPT came out at 13.3 Karmen units and the “Liver Damage Index” value was 0.6.
Consider `C#CCOC(=O)C(C(=O)OCC#C)=C1SC2OC(=O)OC2S1` (stereo not shown) [Compound 85], for which the p-GPT is 30.3 Karmen units and the “Liver Damage Index” value was 0.
In the case of `CCOC(=O)C(C(=O)Cc1ccccc1)=C1SC(O)C(O)S1` (stereo not shown) [Compound 55], the p-GPT is 105 Karmen units and the “Liver Damage Index” value turned out to be 1.8.
In the same order, the values of `CC(=O)C(C(=O)OC(C)C)=C1SC2OC(=O)OC2S1` (stereo not shown) [Compound 89] are 26.3 Karmen units and 0.4.
`CC(C)COC(=O)C(C(=O)OCC(C)C)=C1SC2OC(=S)OC2S1` (stereo not shown) [Compound 110]: the p-GPT turned out to be 554.7 Karmen units and the “Liver Damage Index” value stood at 1.2.
As to `COC(=O)C(C(=O)OC)=C1SC(OC(=O)CCC(=O)O)C(OC(=O)CCC(=O)O)S1` (stereo not shown) [Compound 70], the p-GPT is 121.0 Karmen units and the “Liver Damage Index” value came to 1.2.
Turning to `CCOC(=O)C(C(=O)OCC)=C1SC2OC(=O)OC2S1` (stereo not shown) [Compound 73], the p-GPT was 75.1 Karmen units and the “Liver Damage Index” value is on record as 0.8.
Take `CC(=O)OC1SC(=C(C(=O)OC(C)C)C(=O)OC(C)C)SC1OC(C)=O` (stereo not shown) [Compound 58]: the p-GPT turned out to be 42.0 Karmen units and the “Liver Damage Index” value amounted to 1.0.

These data come from patent US4535075A, “Dithiolane derivative, process for producing the same and use thereof” (Nihon Nohyaku Co., Ltd., priority 1982, dated 1985).
